Assay results from article PMC10544810 (Food & Function, 2023).

What was measured:
LC-MS [1] = format: in vivo, human; conditions: given as x : 1; plasma versus CSF concentrations
LC-MS [2] = format: in vivo, human; conditions: for concentrations detected in plasma: individual volunteers, ESI Fig. S4; for plasma concentration (mean ± SD): fasted baseline plasma, 90 volunteers
[3] = cited from earlier work

Row | plasma : CSF ratio (LC-MS [1]) | plasma concentration (mean ± SD) (LC-MS [2]) | Structure (SMILES) | further results
1 |  | 0.0053 ± 0.0041 µM | CCOC(=O)c1cc(O)c(O)c(O)c1 [3,4,5-trihydroxybenzene ethyl ester] | 
2 |  | 179 ± 118 µM | Cn1c(=O)c2c(ncn2C)n(C)c1=O [1,3,7-Trimethylxanthine, reference compound] | 
3 | 5 |  | O=c1ccc2ccc(O)c(O)c2o1 [7,8-Dihydroxycoumarin] | concentrations detected in plasma (LC-MS [2]): below 1 μM
4 |  | 387 ± 243 µM | O=C(O)CNC(=O)c1ccccc1 [hippuric acid] | 

Second part, the compound before the results:

Row | Structure (SMILES) | plasma : CSF ratio (LC-MS [1]) | plasma concentration (mean ± SD) (LC-MS [2]) | further results
5 | Oc1cc(O)c2c(c1)O[C@H](c1ccc(O)c(O)c1)[C@H](O)C2 [(−)-Epicatechin] | 24 |  | concentrations detected in plasma (LC-MS [2]): below 1 μM
6 | O=C(O)c1cccc(O)c1 [3-Hydroxybenzoic acid] |  |  | CSF concentration reported by a previous study [3]: 58.5 nM
7 | Cn1c(=O)c2[nH]cnc2n(C)c1=O [1,3-Dimethylxanthine, reference compound] | 620 |  | 
8 | Cn1c(=O)[nH]c(=O)c2[nH]cnc21 [3-Methylxanthine] |  | 5.3 ± 3.8 µM | 
